The results in this text go back to patent publication US8821898B2, “Active compound combinations having insecticidal and acaricidal properties” (Bayer CropScience AG, priority 2003, dated 2014).

Each structure is given as a SMILES string.

Assay type in all cases: in vivo
One assay relates to Aphis gossypii. Put plainly: Aphis gossypii test (dipped cotton leaves). The procedure:
(§1) To produce a suitable preparation of active compound, 1 part by weight of active compound is mixed with the stated amounts of solvent and emulsifier, and the concentrate is diluted with emulsifier-containing water to the desired concentration.
Cotton leaves (Gossypium hirsutum) which are heavily infested by the cotton aphid (Aphis gossypii) are treated by being dipped into the preparation of active compound of the desired concentration.
After the desired period of time; the kill in % is determined. 100% means that all aphids have been killed; 0% means that none of the aphids have been killed. The determined kill rates are entered into Colby's formula (see page 41).

The subject of assay [1] is Phaedon cochleariae larvae. Kind of assay: Phaedon cochleariae larvae test (dipped cabbage leaves). The procedure:
as §1
Cabbage leaves (Brassica oleracea) are treated by being dipped into the preparation of active compound of the desired concentration and are populated with larvae of the mustard beetle (Phaedon cochleariae) while the leaves are still moist.
After the desired period of time, the kill in % is determined. 100% means that all beetle larvae have been killed; 0% means that none of the beetle larvae have been killed. The determined kill rates are entered into Colby's formula (see page 41).

The test system of the next assay is Myzus persicae. Put plainly: Myzus persicae test (dipped cabbage leaves). The note with it: 4 ppm. How it is done: as §1
Cabbage leaves (Brassica oleracea) which are heavily infested by the green peach aphid (Myzus persicae) are treated by being dipped into the preparation of active compound of the desired concentration.
After the desired period of time, the kill in % is determined. 100% means that all aphids have been killed; 0% means that none of the aphids have been killed. The determined kill rates are entered into Colby's formula (see on page 41).

The test system of a further assay is Spodoptera frugiperda. Kind of assay: Spodoptera frugiperda test (dipped cabbage leaves). How it is done:
as §1
Cabbage leaves (Brassica oleracea) are treated by being dipped into the preparation of active compound of the desired concentration and are populated with caterpillars of the army worm (Spodoptera frugiperda) while the leaves are still moist.
(§2) After the desired period of time, the kill in % is determined. 100% means that all caterpillars have been killed; 0% means that none of the caterpillars have been killed. The determined kill rates are entered into Colby's formula (see page 41).

Assay [2] has as its system Plutella xylostella, resistant strain. Kind of assay: Plutella xylostella test (resistant strain). The procedure:
as §1
Cabbage leaves (Brassica oleracea) are treated by being dipped into the preparation of active compound of the desired concentration and are populated with caterpillars of the diamondback moth (Plutella xylostella, resistant strain) while the leaves are still moist.
as §2

With `CC(C)N1C(=O)N(c2ccccc2)CS/C1=N\C(C)(C)C` [(2-2) buprofezin, buprofezin, reference compound], the “Kill rate in % after 7d, found” value with Aphis gossypii (20 ppm) worked out at 0%. Moreover, in assay [1] (100 ppm), the “Kill rate in % after 3d, found” value came to 20%.

With `N#CCNC(=O)c1cnccc1C(F)(F)F` [(2-6) flonicamid, flonicamid, reference compound], the “Kill rate in % after 6d, found” value in the assay on Aphis gossypii (20 ppm) and with Myzus persicae (Table B2) was 40% in each case. For the same molecule, the “Kill rate in % after 3d, found” value with Spodoptera frugiperda (100 ppm) came out at 5%.

Turning to `CCOC(=O)OC1=C(c2cc(C)ccc2C)C(=O)NC12CCC(OC)CC2` (stereo not shown) [I-a-4], the “Kill rate in % after 6d, found” value came to 80% in the assay with Myzus persicae (Table B1), 15% in assay [1] (4 ppm) and 0% in assay [2] (0.16 ppm).

Take `Cc1cc(Cl)cc(C(=O)NC(C)C)c1NC(=O)c1cc(C(F)(F)F)nn1-c1ncccc1Cl` [II-1-9]: in the assay with Aphis gossypii (4 ppm), the “Kill rate in % after 7d, found” value was found to be 20%. For the same molecule, the “Kill rate in % after 6d, found” value is given as 55% with Aphis gossypii (20 ppm); 30% in the assay on Myzus persicae (Table B1); 0% in the assay with Myzus persicae (Table B2); 0% in assay [1] (0.16 ppm); 0% in assay [2] (0.0064 ppm). Moreover, the “Kill rate in % after 3d, found” value is reported as 5% in assay [1] (0.16 ppm) and 45% in the assay on Spodoptera frugiperda (0.16 ppm).
